The values below come from US11365192B2, “Pyridine compound substituted with azole” (TAISHO PHARMACEUTICAL CO., LTD., priority 2017, dated 2022).

In general, pIC50 refers to the negative decadic logarithm of the IC50, by convention in mol/L. A low value points to a large IC50.

SMILES strings stand for the structures. pIC50: −log10 of the molar value.

Assay [1] concerns the target human CYP4F2 (Homo sapiens (Human), UniProt P78329). The experiment in a line: Inhibition test against 20-HETE producing enzyme CYP4F2 (luciferine derivative, luminescence). It is filed as biochemical. Put shortly:
(§1)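 E. coli membranes (100 μg/mL protein) expressing human enzyme, room temperature 60 min, luciferin-derivative luminescence; IC50 from % inhibition. CYP4F2: 50 mM KPO4 pH 7.4, 2.5 μM substrate, 1 mM NADPH. CYP4A11: 100 mM Tris-HCl pH 7.5, 60 μM substrate, NADP+/glucose 6-phosphate/G6PDH regenerating system, 3.3 mM MgCl2.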

Assay [2] concerns the target human CYP4A11 (Homo sapiens (Human), UniProt Q02928). The experiment in a line: Inhibition test against 20-HETE producing enzyme CYP4A11 (luciferine derivative, luminescence). It is filed as biochemical. The method, boiled down: as §1
[3] abbreviates: human CYP4F2, luciferine derivative, luminescence.
[4] abbreviates: human CYP4A11, luciferine derivative, luminescence.
Setting [5] is: E. coli membrane fraction expressing human CYP4F2, 2.5 μM luciferine derivative, room temperature 60 minutes.
[6] abbreviates: E. coli membrane fraction expressing human CYP4A11, 60 μM luciferine derivative, room temperature 60 minutes.

Sequence of human CYP4A11 (Q02928 5-519): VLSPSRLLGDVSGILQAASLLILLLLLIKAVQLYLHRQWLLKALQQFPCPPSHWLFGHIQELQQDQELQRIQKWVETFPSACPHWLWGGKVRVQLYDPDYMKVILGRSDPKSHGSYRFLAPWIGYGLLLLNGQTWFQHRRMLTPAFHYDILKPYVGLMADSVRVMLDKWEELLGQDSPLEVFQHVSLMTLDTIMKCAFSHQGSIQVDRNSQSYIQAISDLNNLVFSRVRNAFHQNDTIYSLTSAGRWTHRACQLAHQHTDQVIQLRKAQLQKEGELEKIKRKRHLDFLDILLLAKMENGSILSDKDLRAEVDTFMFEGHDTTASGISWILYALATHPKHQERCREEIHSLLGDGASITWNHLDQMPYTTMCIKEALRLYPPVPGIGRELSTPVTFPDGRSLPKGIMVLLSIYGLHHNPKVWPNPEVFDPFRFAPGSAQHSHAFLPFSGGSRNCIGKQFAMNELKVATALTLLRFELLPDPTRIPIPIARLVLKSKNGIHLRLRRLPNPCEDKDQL
Sequence of human CYP4F2 (P78329 5-520): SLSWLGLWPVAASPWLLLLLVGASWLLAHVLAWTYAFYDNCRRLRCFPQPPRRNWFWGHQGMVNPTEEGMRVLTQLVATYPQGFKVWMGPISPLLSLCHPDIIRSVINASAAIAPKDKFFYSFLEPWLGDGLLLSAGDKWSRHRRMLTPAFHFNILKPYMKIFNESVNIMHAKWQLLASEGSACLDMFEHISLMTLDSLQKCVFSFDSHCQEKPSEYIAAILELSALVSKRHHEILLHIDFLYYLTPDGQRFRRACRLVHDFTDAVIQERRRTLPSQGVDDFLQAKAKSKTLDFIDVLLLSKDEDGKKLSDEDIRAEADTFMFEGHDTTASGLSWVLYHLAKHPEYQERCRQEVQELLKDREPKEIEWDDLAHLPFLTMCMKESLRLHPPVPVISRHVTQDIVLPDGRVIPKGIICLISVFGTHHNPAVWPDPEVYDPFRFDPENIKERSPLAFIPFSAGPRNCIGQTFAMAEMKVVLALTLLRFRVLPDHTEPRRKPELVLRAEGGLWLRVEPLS

For `CS(=O)(=O)NC(=O)CCc1cccc(COc2ccc(-c3ccn[nH]3)nc2)c1` [Example 44-5], the results for the negative-log IC50 (pIC50) in assay [1] (setting [3]) and in assay [2] (setting [4]) were 5.57 and 7.51, respectively.

As for `Oc1cccc(COc2ccc(-c3ccn[nH]3)nc2)c1` [Example 13-1, 3-[[6-(1H-Pyrazol-5-yl)-3-pyridinyl]oxymethyl]phenol], the pIC50 in assay [1] (setting [5]) is 7.47; in assay [2] (setting [6]), 6.21.

As to `O=S(=O)(Nc1ccc(F)cc1)c1ccc(COc2ccc(-c3ccn[nH]3)nc2)cc1` [Example 23-6], the figures for the pIC50 in assay [1] (setting [5]) and in assay [2] (setting [6]) were 8.19 and 6.57, respectively.

On to `O=C(CCCCCCOc1ccc(-c2ccn[nH]2)nc1)NC1(C(=O)O)CCCC1` [Example 50-1, 1-[[1-Oxo-7-[[6-(1H-pyrazol-5-yl)-3-pyridinyl]oxy]heptyl]amino]-1-cyclopentanecarboxylic Acid], for which the negative-log IC50 (pIC50) in assay [1] (setting [5]) was 5.55; in assay [2] (setting [6]) it was 7.12.

With `CN(C)C(=O)[C@H]1C[C@](O)(c2cccc(COc3ccc(-c4ccn[nH]4)nc3)c2)C1` [Example 42-21], the pIC50 in assay [1] (setting [3]) was 7.55; in assay [2] (setting [4]), 6.37.

As for `CC(C)(CCN1CCc2ccc(COc3ccc(-c4ccn[nH]4)nc3)cc2C1=O)C(=O)O` [Example 8-6], the pIC50 in assay [1] (setting [5]) is 7.28; in assay [2] (setting [6]), 5.60.

As for `O=C(O)[C@H]1CCC[C@H](COc2ccc(-c3ccn[nH]3)nc2)C1` (racemic) [Example 9-1, trans-3-[[6-(1H-Pyrazol-5-yl)-3-pyridinyl]oxymethyl]-1-cyclohexanecarboxylic Acid (Racemate)], the pIC50 was 5.72 in assay [1] (setting [5]) and 7.29 in assay [2] (setting [6]).

As for `CC(C)(OCCCCOCCCCOc1ccc(-c2ccn[nH]2)nc1)C(=O)O` [Example 9-2], the figures for the negative-log IC50 (pIC50) in assay [1] (setting [5]) and in assay [2] (setting [6]) were 5.96 and 5.74, respectively.

As for `NS(=O)(=O)c1ccc(C(=O)N2CCC[C@@H](COc3ccc(-c4ccn[nH]4)nc3)C2)cc1` [Example 41-2], the pIC50 in assay [1] (setting [5]) was 6.35; in assay [2] (setting [6]), 6.48.

`O=C(CCC1(C(=O)O)CCCC1)N1CCCC(CCOc2ccc(-c3ccn[nH]3)nc2)C1` (stereo not shown) [Example 3-4]: the pIC50 was 6.59 in assay [1] (setting [5]) and 5.74 in assay [2] (setting [6]).

`O=C(O)C1CCN(c2cccc(COc3ccc(-c4ccn[nH]4)nc3)c2)CC1` [Example 34-1, 1-[3-[[6-(1H-Pyrazol-5-yl)-3-pyridinyl]oxymethyl]phenyl]-4-piperidinecarboxylic Acid]: the negative-log IC50 (pIC50) in assay [1] (setting [5]) is 5.39; in assay [2] (setting [6]), 7.38.

Take `CC(C)(Oc1cccc(CCCOc2ccc(-c3ccn[nH]3)nc2)n1)C(=O)O` [Example 71-40]: the negative logarithm of the IC50 (pIC50) was 5.06 in assay [1] (setting [3]) and 6.35 in assay [2] (setting [4]).

With `O=C(O)[C@@H]1CCc2ccc(COc3ccc(-c4ccn[nH]4)nc3)cc2C1` [Example 69-1-1], the negative-log IC50 (pIC50) is 6.62 in assay [1] (setting [3]) and 7.68 in assay [2] (setting [4]).

As to `O=C(c1cccc(=O)[nH]1)N1CCC[C@@H](COc2ccc(-c3ccn[nH]3)nc2)C1` [Example 41-4], the values for the negative-log IC50 (pIC50) in assay [1] (setting [5]) and in assay [2] (setting [6]) were 5.82 and 6.15, respectively.

`CC(C)(Oc1ccc(CCCOc2ccc(-c3ccn[nH]3)nc2)cn1)C(=O)O` [Example 71-38]: the values for the negative-log IC50 (pIC50) in assay [1] (setting [3]) and in assay [2] (setting [4]) were 5.72 and 5.85, respectively.

Regarding `O=C(O)CCCCCCOc1ccc(-c2ccn[nH]2)nc1` [Example 22-20, 7-[[6-(1H-Pyrazol-5-yl)-3-pyridinyl]oxy]heptanoic Acid], the negative logarithm of the IC50 (pIC50) is 5.02 in assay [1] (setting [5]) and 7.12 in assay [2] (setting [6]).

Take `O=C(O)c1ccc(CCCCCOc2ccc(-c3ccn[nH]3)nc2)cn1` [Example 71-29]: the pIC50 in assay [1] (setting [3]) is 6.59; in assay [2] (setting [4]), 6.96.

For the compound `CNC(=O)c1cccc(COc2ccc(-c3ccn[nH]3)nc2)c1` [Example 42-1, N-Methyl-3-[[6-(1H-pyrazol-5-yl)-3-pyridinyl]oxymethyl]benzamide], the figures for the negative-log IC50 (pIC50) in assay [1] (setting [5]) and in assay [2] (setting [6]) were 7.12 and 6.38, respectively.

On to `O=C(O)[C@H]1C[C@@H]1c1ccc(CCOc2ccc(-c3ccn[nH]3)nc2)cc1` [Example 70-10-2], for which the negative-log IC50 (pIC50) was 6.47 in assay [1] (setting [3]) and 6.35 in assay [2] (setting [4]).

Take `O=C(O)CCCc1cccc(COc2ccc(-c3ccn[nH]3)nc2)c1` [Example 30-1, 4-[3-[[6-(1H-Pyrazol-5-yl)-3-pyridinyl]oxymethyl]phenyl]butanoic Acid]: the pIC50 is 5.85 in assay [1] (setting [5]) and 7.77 in assay [2] (setting [6]).

Take `CC(C)(CCCCCCOc1ccc(-c2ccn[nH]2)nc1)C(=O)O` [Example 1-61, 2,2-Dimethyl-8-[[6-(1H-pyrazol-5-yl)-3-pyridinyl]oxy]octanoic Acid]: the pIC50 in assay [1] (setting [5]) is 5.72; in assay [2] (setting [6]), 7.59.

With `O=C(O)C[C@H](NC(=O)c1cccc(COc2ccc(-c3ccn[nH]3)nc2)c1)c1ccccc1` [Example 45-7], the pIC50 is 5.54 in assay [1] (setting [3]) and 6.11 in assay [2] (setting [4]).

As for `O=C(O)CCc1cccc(COc2ccc(-c3ccn[nH]3)nc2)c1` [Example 22-4], the pIC50 is 5.85 in assay [1] (setting [5]) and 7.70 in assay [2] (setting [6]).

Regarding `O=C(O)CCc1ccc(CCCOc2ccc(-c3ccn[nH]3)nc2)cc1` [Example 8-7], the results for the pIC50 in assay [1] (setting [5]) and in assay [2] (setting [6]) were 6.55 and 6.36, respectively.

For `NC(=O)c1cc(COc2ccc(-c3n[nH]cc3Cl)nc2)ccn1` [Example 53-2], the negative-log IC50 (pIC50) is 7.80 in assay [1] (setting [5]) and 6.02 in assay [2] (setting [6]).

`O=C(O)CCS(=O)(=O)c1cccc(COc2ccc(-c3ccn[nH]3)nc2)c1` [Example 14-1, 3-[3-[[6-(1H-Pyrazol-5-yl)-3-pyridinyl]oxymethyl]phenyl]sulfonylpropanoic Acid]: the pIC50 in assay [1] (setting [5]) was 5.66; in assay [2] (setting [6]), 7.52.

Turning to `O=C(O)Cn1ncc2cc(COc3ccc(-c4ccn[nH]4)nc3)ccc21` [Example 16-1, 2-[5-[[6-(1H-Pyrazol-5-yl)-3-pyridinyl]oxymethyl]-1-indazolyl]acetic Acid], the negative-log IC50 (pIC50) in assay [1] (setting [5]) is 5.85; in assay [2] (setting [6]), 7.28.

With `O=C(O)CCC(=O)N1CCC[C@@H](COc2ccc(-c3ccn[nH]3)nc2)C1` [Example 1-24], the pIC50 in assay [1] (setting [5]) is 4.82; in assay [2] (setting [6]) it was 6.77.

In the case of `O=C(O)C1CCc2cc(CCOc3ccc(-c4ccn[nH]4)nc3)ccc2O1` (stereo not shown) [Example 71-7, 6-[2-[6-(1H-Pyrazol-5-yl)pyridin-3-yl]oxyethyl]-3,4-dihydro-2H-chromene-2-carboxylic Acid], the negative logarithm of the IC50 (pIC50) in assay [1] (setting [3]) was 6.26; in assay [2] (setting [4]) it was 7.09.

In the case of `O=C(O)c1cnn(-c2cccc(COc3ccc(-c4ccn[nH]4)nc3)c2)c1` [Example 34-3, 1-[3-[[6-(1H-Pyrazol-5-yl)-3-pyridinyl]oxymethyl]phenyl]-4-pyrazolecarboxylic Acid], the figures for the negative-log IC50 (pIC50) in assay [1] (setting [5]) and in assay [2] (setting [6]) were 6.41 and 7.59, respectively.

With `O=C(O)c1ccc(CCCOc2ccc(-c3ccn[nH]3)nc2)cc1` [Example 1-8], the negative logarithm of the IC50 (pIC50) was 5.59 in assay [1] (setting [5]) and 7.11 in assay [2] (setting [6]).

Turning to `O=S(=O)(CCO)c1cccc(COc2ccc(-c3ccn[nH]3)nc2)c1` [Example 3-11], the pIC50 was 6.54 in assay [1] (setting [5]) and 7.26 in assay [2] (setting [6]).

In the case of `O=C(O)c1cnn2c1CN(C(=O)c1cccc(COc3ccc(-c4ccn[nH]4)nc3)c1)CC2` [Example 45-44], the negative logarithm of the IC50 (pIC50) in assay [1] (setting [3]) was 5.46; in assay [2] (setting [4]), 6.96.

As to `O=C(O)C12CC(C(=O)N3CCC[C@@H](COc4ccc(-c5ccn[nH]5)nc4)C3)(C1)C2` [Example 46-3], the figures for the negative logarithm of the IC50 (pIC50) in assay [1] (setting [5]) and in assay [2] (setting [6]) were below 4.30 and 5.82, respectively.

For the compound `O=C(O)C1CCc2ccc(COc3ccc(-c4[nH]ncc4Cl)nc3)cc2O1` (single isomer, unassigned) [Example 75-7], the negative-log IC50 (pIC50) in assay [1] (setting [3]) is 7.70; in assay [2] (setting [4]), 8.11.

Consider `O=C(CCc1cccc(COc2ccc(-c3ccn[nH]3)nc2)c1)NC1COC1` [Example 43-4], for which the negative-log IC50 (pIC50) is 7.35 in assay [1] (setting [3]) and 6.82 in assay [2] (setting [4]).

Regarding `CN(CCC(C)(C)C(=O)O)C(=O)c1cccc(COc2ccc(-c3ccn[nH]3)nc2)c1` [Example 45-18], the pIC50 in assay [1] (setting [3]) is 6.57; in assay [2] (setting [4]) it was 6.36.

As to `CC(C)(COc1cc(CCOc2ccc(-c3ccn[nH]3)nc2)ccn1)C(=O)O` [Example 71-35], the pIC50 is 5.72 in assay [1] (setting [3]) and 5.85 in assay [2] (setting [4]).

In the case of `CC(=O)N1CCC(CCCCCCCCOc2ccc(-c3ccn[nH]3)nc2)(C(=O)O)C1` (stereo not shown) [Example 72-9], the pIC50 is 7.74 in assay [1] (setting [3]) and 6.64 in assay [2] (setting [4]).

`O=C(O)C12CCC(COc3cnc(-c4ccn[nH]4)c(F)c3)(CC1)CC2` [Example 1-21]: the pIC50 in assay [1] (setting [5]) was 4.51; in assay [2] (setting [6]), 7.54.

As to `CCCNC(=O)Cc1cccc(COc2ccc(-c3ccn[nH]3)nc2)c1` [Example 42-6], the pIC50 was 7.01 in assay [1] (setting [5]) and 6.52 in assay [2] (setting [6]).

With `CNC(=O)C(C)(C)c1cccc(COc2ccc(-c3ccn[nH]3)nc2)c1` [Example 42-24], the results for the pIC50 in assay [1] (setting [3]) and in assay [2] (setting [4]) were 6.82 and 7.41, respectively.

On to `CN(C)CCNC(=O)CCc1cccc(COc2ccc(-c3ccn[nH]3)nc2)c1` [Example 43-15], for which the pIC50 in assay [1] (setting [3]) was 6.55; in assay [2] (setting [4]), 6.04.

For `O=C(O)Cc1cccc(OCCOc2ccc(-c3ccn[nH]3)nc2)c1` [Example 22-19, 2-[3-[2-[[6-(1H-Pyrazol-5-yl)-3-pyridinyl]oxy]ethoxy]phenyl] acetic Acid], the pIC50 was 5.82 in assay [1] (setting [5]) and 7.31 in assay [2] (setting [6]).

In the case of `O=C(O)C12CCC(COc3ccc(-c4ccn[nH]4)nc3)(CC1)CC2` [Example 8-18], the pIC50 in assay [1] (setting [5]) was 4.80; in assay [2] (setting [6]), 7.28.

Regarding `CN(CC(C)(C)C(=O)O)S(=O)(=O)c1cccc(COc2ccc(-c3ccn[nH]3)nc2)c1` [Example 75-2], the pIC50 is 6.89 in assay [1] (setting [3]) and 7.42 in assay [2] (setting [4]).

With `O=C(O)c1cccc(CC(=O)N2CCC[C@@H](COc3ccc(-c4ccn[nH]4)nc3)C2)c1` [Example 46-5], the values for the negative logarithm of the IC50 (pIC50) in assay [1] (setting [5]) and in assay [2] (setting [6]) were 5.12 and 6.55, respectively.
